Patent EP1938810A1, “AMELIORATING AGENT FOR METABOLIC SYNDROME” (FUJI CHEMICAL INDUSTRY CO., LTD., priority 2005, dated 2007)

Experiments:
[1] = tested on: metabolic syndrome model rats (SHR/Ndmer); assay: Measurement of adiponectin in blood (ELISA); type: in vivo, rat; settings: for blood adiponectin concentration: Ax 50 mg/kg oral, SHR/Ndmer rats
Description: I ml of blood was exsanguinated from a rat. After centrifugation, the obtained supernatant was subjected to ELISA kit for measuring adiponectin (Otsuka Pharmaceutical Inc.) to measure the adiponectin concentration in blood
(§1) Female 5 weeks old, metabolic syndrome model rats (SHR/Ndmer) (a product of Sankyo laboratories Co., Ltd.) were purchased and reared for about a week in a laboratory animals rearing room of a constant temperature (24 ± 1 °C), a constant humidity (54 ± 5 %) and a 12 hour light-dark cycle, and thereafter used for the experiment. Water and feed were provided ad lib to them. In the experiment, each group consists of 6 rats with proviso that 5 Wistar rats as normal group were used. Sample was orally administered to all rats in the afternoon.
(§2) • 1) Control group: olive oil was administered in an amount of 1 ml per 1 kg of body weight of rat. • 2) Astaxanthin 5 mg/Kg administration group: astaxanthin was administered in an amount of 5 mg in admixture with I ml of olive oil per 1 kg of body weight of rat. • 3) Astaxanthin 50 mg/Kg administration group: astaxanthin was administered in an amount of 50 mg in admixture with I ml of olive oil per 1 kg of body weight of rat. • 4) Normal group: olive oil was administered in an amount of 1 ml per 1 kg of body weight of Wister rat

[2] = Change in body weight of rats under oral astaxanthin; type: in vivo, rat; settings: for body weight: SHR/Ndmer rats
Description: as §1, §2

[3] = tested on: metabolic syndrome model rats (SHR/Ndmer); assay: Blood glucose value after insulin injection (insulin resistance test); type: in vivo, rat; settings: for blood glucose value after insulin infection: SHR/Ndmer rats, fasted, 120 minutes after 0.5U insulin
Description: Water only was given to rats ad lib from the day before the measurement not so as to give any feed to them. In the afternoon, 0.5 U of insulin was injected to them in an amount of 1 ml per 1 kg of the body weight, and the exsanguinations were conducted at given times to measure the glucose concentration in blood using a […] Π (a product of Horive Ltd). Female 5 weeks old, metabolic syndrome model rats ([…] product of Sankyo laboratories Co., Ltd.) were purchased and reared for about a week in a laboratory animals rearing room of a constant temperature (24 ± 1 °C), a constant humidity (54 ± 5 %) and a 12 hour light-dark cycle, and thereafter used for the experiment. Water and feed were provided ad lib to them. In the experiment, each group consists of 6 rats with proviso that 5 Wistar rats as normal group were used. Sample was orally administered to all rats in the afternoon. • 1) Control group: olive oil was administered in an amount of 1 ml per 1 kg of body weight of rat. • 2) Astaxanthin 5 mg/Kg administration group: astaxanthin was administered in an amount of 5 mg in admixture with I ml of olive oil per 1 kg of body weight of rat. • 3) Astaxanthin 50 mg/Kg administration group: astaxanthin was administered in an amount of 50 mg in admixture with I ml of olive oil per 1 kg of body weight of rat. • 4) Normal group: olive oil was administered in an amount of 1 ml per 1 kg of body weight of Wister rat

[4] = tested on: metabolic syndrome model rats (SHR/Ndmer); assay: Measurement of fat in blood (triglyceride G test); type: in vivo, rat; settings: for blood fat: Ax 50 mg/kg oral, SHR/Ndmer rats
Description: The supernatant formed after centrifugation was subjected to the triglyceride G test using an enzyme (a product of Wako Pure Chemical Industries, Ltd.) to measure the fat concentration in blood.
as §1, §2

[5] = tested on: metabolic syndrome model rats (SHR/Ndmer); assay: Measurement of blood pressure (tail artery, plethysmography); type: in vivo, rat; settings: for diastolic blood pressure / systolic blood pressure: SHR/Ndmer rats
Description: Rats were broken in the apparatus since a week ago from the beginning of the experiment. They were bound slightly under a non-anesthetic and cuff with a built-in infrared sensor (THC-1, a product of Softron Co., Ltd. was applied to the tail artery to measure pressure (maximum, minimum and an average blood pressures) by a plethysmography. The measurement of blood pressure was conducted in the afternoon.
as §1, §2

[6] = background statement; cited from earlier work
[7] = tested on: metabolic syndrome model rats (SHR/Ndmer); assay: Fasting blood glucose value; type: in vivo, rat; settings: overnight fasting
Description: Water only was given to rats ad lib from the day before the measurement not so as to give any feed to them. In the afternoon, 0.5 U of insulin was injected to them in an amount of 1 ml per 1 kg of the body weight, and the exsanguinations were conducted at given times to measure the glucose concentration in blood using a Antisence Π (a product of Horive Ltd).
as §1, §2

[8] = Ax 5 mg/kg oral, at 6 weeks old
[9] = Ax 5 mg/kg oral, at 9 weeks old
[10] = Ax 5 mg/kg oral, at 17 weeks old
[11] = Ax 50 mg/kg oral, at 6 weeks old
[12] = Ax 50 mg/kg oral, at 9 weeks old
[13] = Ax 50 mg/kg oral, at 17 weeks old
[14] = Ax 5 mg/kg oral, at 7 weeks old
[15] = Ax 5 mg/kg oral, at 12 weeks old
[16] = Ax 50 mg/kg oral, at 7 weeks old
[17] = Ax 50 mg/kg oral, at 12 weeks old
[18] = Ax 5 mg/kg oral, at 24 weeks old
[19] = Ax 50 mg/kg oral, at 24 weeks old

Which blood adiponectin concentration ([1]; at 7 weeks old) does the source give for `CC1=C(/C=C/C(C)=C/C=C/C(C)=C/C=C/C=C(C)/C=C/C=C(C)/C=C/C2=C(C)C(=O)C(O)CC2(C)C)C(C)(C)CC(O)C1=O` (stereo not drawn) [Ax, 3,3'-dihydroxy-β, β-carotene-4, 4'-dione] here?
Its blood adiponectin concentration is 7.08 ± 0.43 µg/mL.

And the blood adiponectin concentration ([1]; at 12 weeks old)?
Its blood adiponectin concentration is 8.21 ± 0.14 µg/mL.

And the “adiponectin concentration in blood (in words)” value ([1]; administration of astaxanthin, summary of Table 7)?
The value was “increased in comparison with the control group”.

And the body weight [2, 8]?
Its body weight is 156 g.

And the body weight [2, 9]?
The body weight was 259 g.

And the body weight ([2]; Ax 5 mg/kg oral, at 13 weeks old)?
Its body weight is 378 g.

What about the body weight [2, 10] of the same compound?
The body weight was 468 g.

What about the body weight [2, 11] of the same compound?
Its body weight is 148 g.

What about the body weight [2, 12] of the same compound?
The body weight was 250 g.

What about the body weight ([2]; Ax 50 mg/kg oral, at 13 weeks old) of the same compound?
Its body weight is 368 g.

What about the body weight [2, 13] of the same compound?
The body weight was 459 g.

And the “change in the body weight (in words)” value ([2]; administration of astaxanthin, summary of Table 1)?
The value was “no change in the body weight”.

What about the “blood glucose value after insulin infection” value [3, 14] of the same compound?
The value was 98.0 mg/dL.

And the “blood glucose value after insulin infection” value [3, 9]?
The value was 85.6 mg/dL.

What about the “blood glucose value after insulin infection” value [3, 15] of the same compound?
Its value is 81.5 mg/dL.

What about the “blood glucose value after insulin infection” value [3, 10] of the same compound?
The value was 82.2 mg/dL.

And the “blood glucose value after insulin infection” value [3, 16]?
Its value is 106.3 mg/dL.

What about the “blood glucose value after insulin infection” value [3, 12] of the same compound?
The value was 81.0 mg/dL.

And the “blood glucose value after insulin infection” value [3, 17]?
The value was 73.8 mg/dL.

And the “blood glucose value after insulin infection” value [3, 13]?
Its value is 72.0 mg/dL.

What about the “insulin resistance (in words)” value ([3]; administration of astaxanthin, summary of Table 5) of the same compound?
Its value is “significantly improved”.

And the blood fat ([4]; at 7 weeks old)?
Its blood fat is 139.5 ± 15.9 mg/dL.

And the blood fat ([4]; at 12 weeks old)?
The blood fat was 304.8 ± 9.9 mg/dL.

And the “increase in the blood fat with the passage of time (in words)” value ([4]; SHR/Ndmer, versus control group, summary of Table 6)?
The value was “suppresses the increase in the blood fat”.

And the diastolic blood pressure [5, 8]?
The diastolic blood pressure was 121 mmHG.

What about the systolic blood pressure [5, 8] of the same compound?
The systolic blood pressure was 144 mmHG.

What about the diastolic blood pressure [5, 9] of the same compound?
The diastolic blood pressure was 130 mmHG.

And the systolic blood pressure [5, 9]?
The systolic blood pressure was 161 mmHG.

What about the diastolic blood pressure [5, 15] of the same compound?
The diastolic blood pressure was 129 mmHG.

What about the systolic blood pressure [5, 15] of the same compound?
The systolic blood pressure was 159 mmHG.

And the diastolic blood pressure [5, 18]?
The diastolic blood pressure was 155 mmHG.

And the systolic blood pressure [5, 18]?
Its systolic blood pressure is 185 mmHG.

And the diastolic blood pressure [5, 11]?
Its diastolic blood pressure is 121 mmHG.

And the systolic blood pressure [5, 11]?
Its systolic blood pressure is 147 mmHG.

And the diastolic blood pressure [5, 12]?
The diastolic blood pressure was 128 mmHG.

What about the systolic blood pressure [5, 12] of the same compound?
Its systolic blood pressure is 160 mmHG.

What about the diastolic blood pressure [5, 17] of the same compound?
The diastolic blood pressure was 119 mmHG.

And the systolic blood pressure [5, 17]?
The systolic blood pressure was 154 mmHG.

What about the diastolic blood pressure [5, 19] of the same compound?
Its diastolic blood pressure is 156 mmHG.

And the systolic blood pressure [5, 19]?
The systolic blood pressure was 189 mmHG.

And the “rise in blood pressure (in words)” value ([5]; administration of astaxanthin, summary of Tables 2 and 3)?
The value was “suppresses the rise in blood pressure”.

What about the “antioxidative action relative to vitamin E (α-tocopherol)” value [6] of the same compound?
The value was “about 1000 times”.

What about the “antioxidative action relative to β-carotene” value [6] of the same compound?
The value was “about 40 times”.

And the “fasting blood glucose value” [7, 14]?
The value was 132.0 mg/dL.

And the “fasting blood glucose value” [7, 9]?
The value was 98.0 mg/dL.

And the “fasting blood glucose value” [7, 15]?
The value was 88.3 mg/dL.

What about the “fasting blood glucose value” [7, 10] of the same compound?
The value was 108.8 mg/dL.

What about the “fasting blood glucose value” [7, 16] of the same compound?
Its value is 135.0 mg/dL.

And the “fasting blood glucose value” [7, 12]?
The value was 109.0 mg/dL.

And the “fasting blood glucose value” [7, 17]?
Its value is 89.3 mg/dL.

What about the “fasting blood glucose value” [7, 13] of the same compound?
The value was 111.8 mg/dL.
